Here are results for 47 molecules from patent publication US11958812B2, “3, 5-disubstituted pyridine and 3, 5-disubstituted pyridazine derivatives and pharmaceutical use of same” (MITSUBISHI TANABE PHARMA CORPORATION, priority 2018, dated 2024).

Each structure is given as a SMILES string.

In one assay the target is T1, ATX activity in plasma (Rattus norvegicus, UniProt Q64610).
T1 construct: from tissue; host or cells: plasma of male Wistar rats after oral dosing
As to the kind of experiment: Measurement of ATX activity in plasma (ex vivo), rat single administration test. Set-up: species or system male Wistar rat. On the procedure:
[Measurement of ATX Activity in Plasma (Ex Vivo)]
A compound administration solution prepared by wet pulverization in a mixer mill (type: MM400) for 10 min and adjusting to a given concentration with 0.5% aqueous carboxymethylcellulose solution was orally administered to male Wistar rat (5-week-old when used) at 5 mL/kg. Blood samples were collected from the cervical vein over time at 8 to 24 hr after administration. The blood was heparin-treated using a micro blood collection tube Capiject (CJ-AL, TERUMO CORPORATION), and the plasma was separated by centrifugation (4° C., 12,000 rpm, for 2 min), and preserved at −80° C. The rats after blood sampling were euthanized by exsanguination from the caudal vena cava under isoflurane inhalation anesthesia. The measurement of ATX activity in plasma was evaluated using the concentration of choline in the plasma, which was liberated from lysophosphatidylcholine (substrate of ATX) by the lysophospholipase D activity of ATX, as an index. An equal amount of 2× assay buffer (200 mM Tris-HCl pH9.0, 10 mM MgCl2, 1 M NaCl, 0.1% Triton X-100) is added to plasma (12 μL) and reacted at 37° C. for 6 hr. The reaction mixture (10 μL) after reaction for 6 hr and 45 μL of reagent R^1 solution (100 mM Tris-HCl pH 8.0, 0.5 mM TOOS, 10 U/mL peroxidase, 0.01% Triton X-100) were added and blended and absorbance at 550-700 nm was measured and used as a prevalue. As the standard, choline chloride was used. 1 mM choline chloride was diluted with 2× assay buffer up to 7 steps in 2-fold serial dilution, R^1 solution was treated similarly and the absorbance was measured. Furthermore, 15 μL of reagent R^2 solution (100 mM Tris-HCl pH 8.0, 1 mM 4-aminoantipyrine, 10 U/mL choline oxidase, 0.01% Triton X-100) was added, and the mixture was reacted at room temperature for 10 min, and absorbance at 550-700 nm was measured. The choline concentration per reaction time was calculated from the difference between the absorbance after R^2 solution addition and prevalue measured before R^2 addition and used as ATX activity value. inhibitory activity (%)=100×{1−[choline concentration (μM) of test substance administration group/choline concentration (μM) of solvent control group]} <calculating formula>

Another assay has as its target human recombinant ATX (Homo sapiens, UniProt Q13822). As to the kind of experiment: Enzyme inhibition test (choline release from LPC, Amplex UltraRed fluorescence). Type of assay: biochemical. Particulars: 200 μM LPC substrate, 1 hr at room temperature, read-out: Experimental Example 1 human ATX IC50. On the procedure:
[Enzyme Inhibition Test Method]
A mixture (10 μL) of substrate and a set of choline quantification reagents (200 μM LPC (1-Oleoyl-sn-glycero-3-phosphocholine Sigma #L1881), 25 μM Amplex UltraRed reagent (Invitrogen), 0.1 U/mL Peroxidase (TOYOBO), 1 U/mL Choline oxidase (TOYOBO)), prepared with assay buffer (50 mM Tris (pH 8.0), 140 mM NaCl, 5 mM KCl, 1 mM CaCl2, 1 mM MgCl2, 0.1% BSA (Albumin from bovine serum, SIGMA), 0.0025% Triton X-100), enzyme (0.4 ng/μL human recombinant ATX) (10 μL), compound-containing solution (100 nL) were dispensed to a 384-well plate, incubated at room temperature for 1 hr and the fluorescence (Ex. 525 nm/Em. 598 nm) was measured. As the standard, choline chloride was used. With a blank free of enzyme was taken as inhibitory rate 100%, and a control free of inhibitor as inhibitory rate 0%, the inhibitory rate was calculated, and IC50 value was calculated from the inhibitory activity percentage at each concentration.

On to `COc1ccc(-c2cncc(OCc3ccc(OC(F)(F)F)cc3)c2)cc1[C@@H]1C[C@H]1C(=O)O` (relative stereo) [Example 2, trans-2-[2-methoxy-5-(5-{[4-(trifluoromethoxy)benzyl]oxy}pyridin-3-yl)phenyl]cyclopropanecarboxylic Acid], for which the “Experimental Example 2 Rat single administration test (inhibitory activity (%) 8 hr after 1 mg/kg oral administration)” value at ATX activity in plasma was determined as 72%. Also, the IC50 (usually the concentration needed to halve the response being measured) at human recombinant ATX amounted to 9 nM. `O=C(O)c1cccc(C2CN(c3cncc(OC[C@H]4CC[C@H](C(F)(F)F)CC4)c3)CCO2)c1` (relative stereo) [Example 13, 3-[4-(5-{[trans-4-(trifluoromethyl)cyclohexyl]methoxy}pyridin-3-yl)morpholin-2-yl]benzoic Acid]: the “Experimental Example 2 Rat single administration test (inhibitory activity (%) 8 hr after 1 mg/kg oral administration)” value on ATX activity in plasma came to 71%. Besides, the 50% inhibitory concentration (IC50) on human recombinant ATX was determined as 3 nM. The matching figures for `COc1ccc(-c2cnnc(OC[C@H]3CC[C@H](C(F)(F)F)CC3)c2)cc1[C@H]1C[C@@H]1C(=O)O` [Example 1-1, (1S,2S)-2-[2-methoxy-5-(6-{[trans-4-(trifluoromethyl)cyclohexyl]methoxy}pyridazin-4-yl)phenyl]cyclopropanecarboxylic Acid]: 94% and 1 nM.

For `O=C(O)c1cncc(C2CN(c3cncc(OC[C@H]4CC[C@H](C(F)(F)F)CC4)c3)CCO2)c1` (some centres unmarked) [Example 52], the IC50 on human recombinant ATX was found to be 7 nM. With `COc1cc(C2CN(c3cncc(OC[C@H]4CC[C@H](C(F)(F)F)CC4)c3)CCO2)cnc1C(=O)O` (some centres unmarked) [Example 53], the IC50 at human recombinant ATX is 1 nM. On the same count and under the same terms, to `COc1cc(C2CN(c3cncc(OC[C@H]4CC[C@H](C(F)(F)F)CC4)c3)CCO2)ncc1C(=O)O` (some centres unmarked) [Example 54] belongs 5 nM. Same read-out and setting: to `Cc1cc(C2CN(c3cncc(OC[C@H]4CC[C@H](C(F)(F)F)CC4)c3)CCO2)cnc1C(=O)O` (some centres unmarked) [Example 55] belongs 2 nM. The same measure, in the same setting: to `Cc1cc(C2CN(c3cncc(OC[C@H]4CC[C@H](C(F)(F)F)CC4)c3)CCO2)ncc1C(=O)O` (some centres unmarked) [Example 56] belongs 7 nM; to `Cc1nc(C2CN(c3cncc(OC[C@H]4CC[C@H](C(F)(F)F)CC4)c3)CCO2)ccc1C(=O)O` (some centres unmarked) [Example 57], 7 nM. Turning to `Cc1ccc(C2CN(c3cncc(OC[C@H]4CC[C@H](C(F)(F)F)CC4)c3)CCO2)nc1C(=O)O` (some centres unmarked) [Example 58], the half-maximal inhibitory concentration (IC50) on human recombinant ATX came to 4 nM. Same read-out and setting: under `Cc1ncc(C2CN(c3cncc(OC[C@H]4CC[C@H](C(F)(F)F)CC4)c3)CCO2)cc1C(=O)O` (some centres unmarked) [Example 59] stands 5 nM; under `Cc1cnc(C2CN(c3cncc(OC[C@H]4CC[C@H](C(F)(F)F)CC4)c3)CCO2)cc1C(=O)O` (some centres unmarked) [Example 60], 5 nM; under `Cc1cnc(C2CN(c3cncc(OC[C@H]4CC[C@H](C(F)(F)F)CC4)c3)CCO2)cc1C(=O)O` (some centres unmarked) [Example 61], 15 nM.

In the case of `O=C(O)c1cc(C2CN(c3cncc(OC[C@H]4CC[C@H](C(F)(F)F)CC4)c3)CCO2)ncc1C(F)(F)F` (some centres unmarked) [Example 62], the IC50 on human recombinant ATX amounted to 1 nM.

Consider `O=C(O)c1ccc(C2CN(c3cncc(OCc4ccc(OC(F)(F)F)cc4)c3)CCO2)nc1` (centres unmarked) [Example 63], for which, at human recombinant ATX, the IC50 was found to be 7 nM. Same read-out and setting: under `O=C(O)c1cncc(C2CN(c3cncc(OCc4ccc(OC(F)(F)F)cc4)c3)CCO2)c1` (centres unmarked) [Example 64] stands 1 nM. Still for that read-out and setting: to `O=C(O)c1ccnc(C2CN(c3cncc(OCc4ccc(OC(F)(F)F)cc4)c3)CCO2)c1` (centres unmarked) [Example 65] belongs 16 nM; to `Cc1cc(C2CN(c3cncc(OCc4ccc(OC(F)(F)F)cc4)c3)CCO2)cnc1C(=O)O` (centres unmarked) [Example 66], 5 nM; to `O=C(O)c1cccc(C2CCN(c3cncc(OCc4ccc(OC(F)(F)F)cc4)c3)C2)c1` (centres unmarked) [Example 67], 13 nM. Same read-out and setting: under `O=C(O)c1ccc(C2CCCN2c2cncc(OCc3ccc(OC(F)(F)F)cc3)c2)cc1` (centres unmarked) [Example 68] stands 14 nM. Consider `O=C(O)CC[C@@H]1CN(c2cncc(OCc3ccc(OC(F)(F)F)cc3)c2)CCO1` [Example 69], for which, at human recombinant ATX, the IC50 was 152 nM.

As to `O=C(O)CC[C@H]1CN(c2cncc(OCC3CCN(CC(F)(F)F)CC3)c2)CCO1` [Example 70], the half-inhibitory concentration (IC50) at human recombinant ATX worked out at 135 nM. For `O=C(O)CC[C@H]1CN(c2cncc(OCC3CCCCC3)c2)CCO1` [Example 71], at human recombinant ATX, the IC50 worked out at 104 nM.

In the case of `O=C(O)CC[C@H]1CN(c2cncc(OCC3CCC4(CCC4)CC3)c2)CCO1` [Example 72], the half-inhibitory concentration (IC50) at human recombinant ATX turned out to be 8 nM. On to `O=C(O)CC[C@H]1CN(c2cncc(OCC3CCC4(CC3)CC4)c2)CCO1` [Example 73], for which, on human recombinant ATX, the IC50 turned out to be 9 nM.

On to `CC1(C)CCC(COc2cncc(N3CCO[C@@H](CCC(=O)O)C3)c2)CC1` [Example 74], for which the IC50 at human recombinant ATX worked out at 10 nM. On the same count and under the same terms, to `O=C(O)CC[C@H]1CN(c2cncc(OCC3CCC(F)(F)CC3)c2)CCO1` [Example 75] belongs 68 nM.

Turning to `O=C(O)CC[C@H]1CN(c2cncc(OC[C@H]3CC[C@@H](C(F)(F)F)CC3)c2)CCO1` [Example 76], the half-maximal inhibitory concentration (IC50) on human recombinant ATX turned out to be 78 nM. On to `O=C(O)CC[C@H]1CN(c2cncc(OCc3ccc(F)cc3)c2)CCO1` [Example 77], for which, at human recombinant ATX, the IC50 amounted to 381 nM. As for `O=C(O)CC[C@H]1CN(c2cncc(OCc3ccc(Cl)cc3)c2)CCO1` [Example 78], the 50% inhibitory concentration (IC50) on human recombinant ATX worked out at 91 nM. As to `O=C(O)CC[C@H]1CN(c2cncc(OCc3cccc(Cl)c3)c2)CCO1` [Example 79], at human recombinant ATX, the IC50 stood at 189 nM. Take `O=C(O)CC[C@H]1CN(c2cncc(OCc3ccccc3Cl)c2)CCO1` [Example 80]: the half-maximal inhibitory concentration (IC50) at human recombinant ATX was determined as 493 nM.

In the case of `O=C(O)CC[C@H]1CN(c2cncc(OCc3ccc(SC(F)(F)F)cc3)c2)CCO1` [Example 81], the IC50 at human recombinant ATX is 12 nM. `O=C(O)CC[C@H]1CN(c2cncc(OCc3ccc(OC(F)(F)F)c(Cl)c3)c2)CCO1` [Example 85]: on human recombinant ATX, the IC50 was found to be 29 nM. Still for that read-out and setting: under `O=C(O)CC[C@H]1CN(c2cncc(COc3ccc(C(F)(F)F)cc3)c2)CCO1` [Example 86] stands 129 nM; under `C[C@H]1CN(c2cncc(OCc3ccc(OC(F)(F)F)cc3)c2)C[C@H](CCC(=O)O)O1` [Example 88], 133 nM. Turning to `CC1(C(=O)O)CC1[C@H]1CN(c2cnnc(OC[C@H]3CC[C@H](C(F)(F)F)CC3)c2)CCO1` (some centres unmarked) [Example 89], the concentration for half-maximal inhibition (IC50) at human recombinant ATX came to 9 nM. The same measure, in the same setting: under `O=C(O)C1CN(c2cncc(OCc3ccc(OC(F)(F)F)cc3)c2)CCO1` (centres unmarked) [Example 90] stands 419 nM; under `O=C(O)CCC1CCCN(c2cncc(OCc3ccc(OC(F)(F)F)cc3)c2)C1` (centres unmarked) [Example 91], 24 nM; under `O=C(O)CCCC1CN(c2cncc(OCc3ccc(OC(F)(F)F)cc3)c2)CCO1` (centres unmarked) [Example 94], 32 nM. On the same count and under the same terms, to `O=C(O)CCCC1COCCN1c1cncc(OCc2ccc(OC(F)(F)F)cc2)c1` (centres unmarked) [Example 95] belongs 36 nM; to `O=C(O)COC[C@@H]1CCCN1c1cncc(OCc2ccc(OC(F)(F)F)cc2)c1` [Example 96], 19 nM; to `O=C(O)CC1CCN(c2cncc(OCc3ccc(OC(F)(F)F)cc3)c2)C1` (centres unmarked) [Example 97], 378 nM. Turning to `O=C(O)CCC1CCN(c2cncc(OCc3ccc(OC(F)(F)F)cc3)c2)C1` (centres unmarked) [Example 98], on human recombinant ATX, the IC50 was 120 nM. On the same count and under the same terms, to `O=C(O)CCCC1CCN(c2cncc(OCc3ccc(OC(F)(F)F)cc3)c2)C1` (centres unmarked) [Example 99] belongs 50 nM; to `O=C(O)CCC1CCCN1c1cncc(OCc2ccc(OC(F)(F)F)cc2)c1` (centres unmarked) [Example 100], 204 nM; to `O=C(O)/C=C/C1CCCN1c1cncc(OCc2ccc(OC(F)(F)F)cc2)c1` (centres unmarked) [Example 101], 113 nM.
